Test results: the supplement of paper PMC10307832

Legend:
Assay in all cases: relative viability (nuclei count vs DMSO), 5 days (fraction); higher = more cells survive
Fedratinib + Luminespib = compound: Cc1cnc(Nc2ccc(OCCN3CCCC3)cc2)nc1Nc1cccc(S(=O)(=O)NC(C)(C)C)c1 [Fedratinib] + CCNC(=O)c1noc(-c2cc(C(C)C)c(O)cc2O)c1-c1ccc(CN2CCOCC2)cc1 [Luminespib] (partner 0.01 µM)
In short: (§1)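 Lung cancer cell lines were pin-tool dosed in 1536-well plates on the day after seeding, with either a lone drug or a fixed anchor-drug dose plus five library-drug doses (not always all listed) in √10 steps. Nuclei were counted on 4× images after 5 days. Relative viability is the ratio of treated-well to vehicle-well nuclei counts, with each value a median of duplicate plates.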

GW-2580 + Pemetrexed = compound: COC1=CC=C(C=C1)COC2=C(C=C(C=C2)CC3=CN=C(N=C3N)N)OC [GW-2580] + Nc1nc2[nH]cc(CCc3ccc(C(=O)N[C@@H](CCC(=O)O)C(=O)O)cc3)c2c(=O)[nH]1 [Pemetrexed] (partner 0.2 µM)
In short: as §1

Fedratinib + OSI-027 = compound: Cc1cnc(Nc2ccc(OCCN3CCCC3)cc2)nc1Nc1cccc(S(=O)(=O)NC(C)(C)C)c1 [Fedratinib] + COc1cccc2cc(-c3nc([C@H]4CC[C@H](C(=O)O)CC4)n4ncnc(N)c34)[nH]c12 [OSI-027] (partner 0.5 µM)
In short: as §1

GW-2580 + Luminespib = compound: COC1=CC=C(C=C1)COC2=C(C=C(C=C2)CC3=CN=C(N=C3N)N)OC [GW-2580] + CCNC(=O)c1noc(-c2cc(C(C)C)c(O)cc2O)c1-c1ccc(CN2CCOCC2)cc1 [Luminespib] (partner 0.01 µM)
In short: as §1

Fedratinib + Lapatinib = compound: Cc1cnc(Nc2ccc(OCCN3CCCC3)cc2)nc1Nc1cccc(S(=O)(=O)NC(C)(C)C)c1 [Fedratinib] + CS(=O)(=O)CCNCc1ccc(-c2ccc3ncnc(Nc4ccc(OCc5cccc(F)c5)c(Cl)c4)c3c2)o1 [Lapatinib] (partner 2 µM)
In short: as §1

Cell Line | relative viability (Fedratinib + Luminespib; first compound 0.1 µM) | relative viability (Fedratinib + Luminespib; first compound 0.3162 µM) | relative viability (Fedratinib + Luminespib; first compound 1 µM) | relative viability (GW-2580 + Pemetrexed; first compound 0.08 µM) | relative viability (GW-2580 + Pemetrexed; first compound 0.8 µM) | relative viability (GW-2580 + Pemetrexed; first compound 2.53 µM) | relative viability (GW-2580 + Pemetrexed; first compound 8 µM) | relative viability (Fedratinib + OSI-027; first compound 0.1 µM) | relative viability (Fedratinib + OSI-027; first compound 0.3162 µM) | relative viability (Fedratinib + OSI-027; first compound 1 µM) | relative viability (GW-2580 + Luminespib; first compound 0.08 µM) | relative viability (GW-2580 + Luminespib; first compound 0.8 µM) | relative viability (GW-2580 + Luminespib; first compound 2.53 µM) | relative viability (GW-2580 + Luminespib; first compound 8 µM) | relative viability (Fedratinib + Lapatinib; first compound 0.1 µM) | relative viability (Fedratinib + Lapatinib; first compound 0.3162 µM) | relative viability (Fedratinib + Lapatinib; first compound 1 µM)
NCI-H1915 | 0.823 | 0.754 | 0.734 | 0.519 | 0.53 | 0.509 | 0.486 | 0.612 | 0.67 | 0.319 | 0.852 | 1.12 | 0.429 | 0.917 | 0.891 | 0.985 | 0.662
NCI-H1944 | 0.741 | 0.801 | 0.763 | 0.621 | 0.638 | 0.556 | 0.512 | 0.343 | 0.413 | 0.344 | 0.692 | 0.767 | 0.7 | 0.628 | 0.816 | 0.803 | 0.615
NCI-H1975 | 0.235 | 0.266 | 0.178 | 0.311 | 0.309 | 0.323 | 0.309 | 0.729 | 0.833 | 0.602 | 0.186 | 0.5 | 0.162 | 0.193 | 1.02 | 0.922 | 0.163
NCI-H1993 | 0.679 | 0.85 | 1.1 | 0.601 | 0.703 | 0.54 | 0.576 | 0.519 | 0.522 | 0.524 | 0.853 | 0.907 | 0.71 | 0.852 | 0.725 | 0.82 | 0.608
NCI-H2009 | 1.04 | 1.09 | 0.943 | 1.06 | 1.11 | 0.945 | 0.843 | 0.529 | 0.632 | 0.455 | 1.15 | 1.11 | 0.999 | 0.876 | 0.915 | 1.02 | 0.171
NCI-H2023 | 0.578 | 0.581 | 0.632 | 0.344 | 0.279 | 0.238 | 0.205 | 0.393 | 0.394 | 0.328 | 0.932 | 1.07 | 1.26 | 0.717 | 0.897 | 0.75 | 0.083
NCI-H2085 | 0.415 | 0.463 | 0.408 | 0.963 | 1.01 | 0.885 | 0.838 | 0.586 | 0.855 | 0.711 | 0.529 | 0.364 | 0.436 | 0.411 | 0.709 | 0.766 | 0.538
NCI-H2087 | 0.17 | 0.18 | 0.14 | 0.68 | 0.713 | 0.7 | 0.625 | 0.486 | 0.453 | 0.425 | 0.133 | 0.179 | 0.174 | 0.164 | 1.25 | 1.31 | 0.303
NCI-H2126 | 0.929 | 0.962 | 0.834 | 0.664 | 0.709 | 0.63 | 0.612 | 0.757 | 0.736 | 0.704 | 0.96 | 1 | 0.907 | 0.825 | 0.761 | 0.772 | 0.689
NCI-H2170 | 0.651 | 0.677 | 0.648 | 0.26 | 0.261 | 0.264 | 0.251 | 0.688 | 0.723 | 0.596 | 0.827 | 0.572 | 0.851 | 0.594 | 0.255 | 0.262 | 0.258
NCI-H2228 | 0.112 | 0.12 | 0.119 | 0.408 | 0.306 | 0.338 | 0.327 | 0.62 | 0.507 | 0.482 | 0.167 | 0.185 | 0.0943 | 0.183 | 1.04 | 1.07 | 0.22
NCI-H2347 | 0.33 | 0.401 | 0.59 | 0.468 | 0.473 | 0.464 | 0.446 | 0.292 | 0.428 | 0.497 | 0.491 | 0.656 | 0.369 | 0.471 | 1.03 | 0.998 | 0.882
NCI-H2405 | 0.57 | 0.701 | 0.562 | 1.04 | 1.2 | 1.02 | 0.799 | 0.601 | 0.618 | 0.61 | 0.727 | 0.604 | 0.671 | 0.586 | 0.91 | 1.07 | 0.753
NCI-H3122 | 0.0769 | 0.0986 | 0.088 | 0.212 | 0.211 | 0.203 | 0.207 | 0.911 | 0.918 | 0.854 | 0.0808 | 0.0609 | 0.0868 | 0.0798 | 1.04 | 0.966 | 0.555
PC-3 [JPC-3] | 0.716 | 0.793 | 0.642 | 0.908 | 1.39 | 0.861 | 0.658 | 0.776 | 0.801 | 0.764 | 0.719 | 0.774 | 0.544 | 0.705 | 0.422 | 0.446 | 0.412
PC-14 |  | 0.172 | 0.14 | 0.14 | 0.136 | 0.137 | 0.127 | 0.746 | 0.88 | 0.633 | 0.144 | 0.129 | 0.175 | 0.131 | 0.261 | 0.351 | 0.249
RERF-LC-KJ | 1.13 | 1.24 | 1.17 | 0.491 | 0.44 | 0.504 | 0.523 | 0.533 | 0.602 | 0.48 | 1.23 | 1.56 | 1.35 | 1.14 | 0.879 | 0.844 | 0.838
